Among the data in patent publication US10328065B2, “Pharmaceutical combination comprising the PI3K inhibitor alpelisib and the B-RAF inhibitor dabrafenib; the use of such combination in the treatment or prevention of cancer” (Novartis AG, priority 2015, dated 2019) are IC50 values, retold here.

Holding throughout (assay type): cell-based
In one assay the test system is RKO. Description: Cell proliferation (cell count by microscopy) and HSA synergy, RKO. Conditions: Homo sapiens, cell line printed RXO (BRAF, PIK3CA mutant), 72 h, 50% of cell counts relative to DMSO, tested A 13 nM-10 μM, B 1.4 nM-1 μM. Here is the method:
(§1) COMPOUNDS A and B were dissolved in 100% DMSO (Sigma, Catalog number D2650) at concentrations of 20 mM and stored at −20° C. until use. Compounds were arrayed in drug master plates (Greiner, Catalog number 788876) and serially diluted 3-fold (7 steps) at 2000× concentration.
(§2) Colorectal cancer cell lines used for this study were obtained, cultured and processed from commercial vendors ATCC, HSRRB, and CellBank Australia (Table 1). All cell line media were supplemented with 10% FBS (HyClone, Catalog number SH30071.03). Media for LIM2405 and LIM2551 was additionally supplemented with 0.6 μg/mL Insulin (SIGMA, Catalog number 19278), 1 μg/mL Hydrocortisone (SIGMA, Catalog number H0135), and 10 μM 1-Thioglycerol (SIGMA, Catalog number M6145).
(§3) Cell lines were cultured in 37° C. and 5% CO2 incubator and expanded in T-75 flasks. In all cases cells were thawed from frozen stocks, expanded through ≥1 passage using 1:3 dilutions, counted and assessed for viability using a ViCell counter (Beckman-Coulter) prior to plating. To split and expand cell lines, cells were dislodged from flasks using 0.25% Trypsin-EDTA (GIBCO, Catalog number 25200). All cell lines were determined to be free of mycoplasma contamination as determined by a PCR detection methodology performed at Idexx Radil (Columbia, Mo., USA) and correctly identified by detection of a panel of SNPs. […]

The test system of another assay is HT-29. Description: Cell proliferation (cell count by microscopy) and HSA synergy, HT-29. As to conditions: Homo sapiens; HT-29 (BRAF, PIK3CA mutant); 72 h; 50% of cell counts relative to DMSO; tested A 13 nM-10 μM, B 1.4 nM-1 μM. Here is the method:
as §1, §2, §3

Another assay concerns LIM2551. Briefly: Cell proliferation (cell count by microscopy) and HSA synergy, LIM2551. As to conditions: LIM2551 (BRAF, PIK3CA mutant); 72 h; 50% of cell counts relative to DMSO; tested A 13 nM-10 μM, B 1.4 nM-1 μM. As for the experimental part:
as §1, §2, §3

The test system of another assay is LS411N. Briefly: Cell proliferation (cell count by microscopy) and HSA synergy, LS411N. As to conditions: Homo sapiens, LS-411N; LS411N (BRAF mutant); 72 h; 50% of cell counts relative to DMSO; tested A 13 nM-10 μM, B 1.4 nM-1 μM. As for the experimental part:
as §1, §2, §3

The test system of another assay is COLO-205. Description: Cell proliferation (cell count by microscopy) and HSA synergy, COLO-205. As to conditions: Homo sapiens; COLO-205 (BRAF mutant); 72 h; 50% of cell counts relative to DMSO; tested A 13 nM-10 μM, B 1.4 nM-1 μM. As for the experimental part: as §1, §2, §3
For a further assay, the system named is LIM2405. Description: Cell proliferation (cell count by microscopy) and HSA synergy, LIM2405. As to conditions: LIM2405 (BRAF mutant); 72 h; 50% of cell counts relative to DMSO; tested A 13 nM-10 μM, B 1.4 nM-1 μM. Here is the method: as §1, §2, §3
For a further assay, the system named is OUMS-23. Briefly: Cell proliferation (cell count by microscopy) and HSA synergy, OUMS-23. Conditions: OUMS-23 (BRAF mutant); 72 h; 50% of cell counts relative to DMSO; tested A 13 nM-10 μM, B 1.4 nM-1 μM. Here is the method: as §1, §2, §3

The IC50 is the concentration that gives 50% inhibition. In the case of `CC(C)(C)c1nc(-c2cccc(NS(=O)(=O)c3c(F)cccc3F)c2F)c(-c2ccnc(N)n2)s1` [COMPOUND B, N-{3-[5-(2-Amino-4-pyrimidinyl)-2-(1,1-dimethylethyl)-1,3-thiazol-4-yl]-2-fluorophenyl}-2,6-difluorobenzenesulfonamide], the IC50 is 0.191 µM with RKO; 0.012 µM with HT-29; 0.023 µM in the assay on LIM2551; > 1 µM with LS411N; 0.01 µM in the assay on COLO-205; 0.007 µM with LIM2405. Besides, the IC50 in the assay on OUMS-23 was > 1 µM.
As to `Cc1nc(NC(=O)N2CCC[C@H]2C(N)=O)sc1-c1ccnc(C(C)(C)C(F)(F)F)c1` [COMPOUND A, (S)-Pyrrolidine-1,2-dicarboxylic acid 2-amide 1-({4-methyl-5-[2-(2,2,2-trifluoro-1,1-dimethyl-ethyl)-pyridin-4-yl]-thiazol-2-yl}-amide)], the IC50 with RKO is 2.6 µM; in the assay on HT-29 it was 1.9 µM; in the assay on LIM2551 it was 1.4 µM; in the assay with LS411N, > 10 µM; in the assay with COLO-205, > 10 µM; in the assay with LIM2405 it was > 10 µM. For the same compound, in the assay on OUMS-23, the IC50 was > 10 µM.
